Experimental data from patent publication US7662767B2, “Polynucleotide intercalator interceptors and inhibitors” (Materials Evolution and Development USA, Inc., priority 2000, dated 2010).
“And” between values parts separate entries of the source, which are not always exact repeats. Equal values may be shown once.

Key:
[1] = Optical titration (absorbance) of acridine orange with xanthines/purines, Kassoc from delta absorbance; format: binding; conditions: for Kassoc ± S.E.: binding affinity between acridine orange (10 μM) and compound, 5 mM HEPES pH 7.0, 25±1° C., 0 = no measurable association detected; for complex formation / binding affinity with AO: optical titration
Procedure: A red spectral shift in the optical adsorption maximum of AO upon the addition of a particular xanthine, indicates the possibility of a complex being formed between the two compounds. Spectral shifts can be measured by optical titrations.
Optical titrations (serial additions of various xanthines to a solution of AO) were performed on a Beckman DU-600 Scanning Spectrophotometer (Beckman Instrument Co., New York, N.Y.) using a 3 mL (1-cm light path) quartz cuvette containing 2.0 mL of a […]. The DU600 Spectrophotometer was blanked with 2 mL of a pH 7.0 buffered 5 mM HEPES solution over the full range of wavelengths to be scanned prior to sample analysis. This reduced the need to subtract the background absorbance from the HEPES buffer. Optical absorbance scans were performed over a wavelength range preferably from 400 nm to 550 nm. […] The 10 μM AO solution was scanned before the start of each titration series to quantitatively monitor any changes in the absorbance spectrum. Optical absorbance experiments were performed using aliquots varying in volume from 1:L to 20:L taken from prepared xanthine stock solutions (5 mM to 50 mM) and titrated into the cuvette containing 2.0 mL of the 10 μM AO solution. The solution in the cuvette was then thoroughly mixed by 10 seconds of shaking before scanning. All titrations were performed at room temperature (25±1° C.). The absorbance spectra were measured in 1 nm intervals and stored in digital form. Digitized scan data was converted to a Lotus Spreadsheet file (*.wk1) using a conversion program supplied by the manufacturer (Beckman Instruments Inc.) then imported into a Microsoft Excel 97™ Workbook file (*.xls) and saved in this format for further analysis. Spectral data for each titration was combined and expressed in graphic form (Excel™) (X-axis=wavelength in nm; Y-axis=optical absorbance) for each xanthine titrated with AO. […] Adjusted absorption values were plotted and compared to spectra from non-complexed AO. This allowed for the visualization of an expected spectral shift that occurs when AO forms a complex with a xanthine.
The association constant, Kassoc, may be used to analyze the binding ability of modified xanthines to DNA intercalators. The association constant may be calculated based upon a differential shift in the absorbance spectrum. When the presence of the xanthine caused a spectral shift, a difference absorbance plot or delta plot was obtained. Delta plots were constructed by subtracting the adjusted absorption spectrum of AO in the presence of the xanthine from the initial spectrum of AO alone at each wavelength and for each aliquot of the titration. This procedure allowed for the creation of difference absorption values or delta absorption values. Delta absorption values obtained in this manner (Y-axis=delta absorption) were plotted against wavelength in nm (X-axis). The appearance of a single isobestic point was indicative of only two species present in solution, AO, and an AO complex. Graphic representation allowed for the selection of a wavelength with the maximum sensitivity for determining the association constant. This wavelength was characterized by the greatest positive response in delta absorbance values observed upon addition of each aliquot of xanthine to the AO solution. The AO-xanthine association or binding constant was determined by the following equilibrium expression: I+X≡IX EQUATION 1: […]
Where I represents the intercalator (AO), X represents the interceptor molecule (xanthine), and IX represents the AO-xanthine complex, respectively.

[2] = system: chicken erythrocyte nuclear chromatin; assay: Blocking of acridine orange intercalation into chicken erythrocyte nuclear chromatin, fluorescence microscopy; parameters: key: 0: no blocking effect; 1: slight blocking; 2: moderate blocking; 3: almost total blocking (very slight green fluorescence detectable); 4: complete blockage (no green fluorescence detectable); conditions: 10 μM AO
Procedure: Microscope slides coated with chicken erythrocyte were stained with 10 μM AO at three separate areas on the microscope slide as described above. Slides were exposed to […] different xanthies at four different molar ratios for three different periods of time. The xanthines, theophylline, caffeine, 1,3,7,9-tetramethyl uric acid, and aminophylline, were prepared with 10 μM AO at molar ratios of 50:1, 500:1, 2500:1, 5000:1 xanthine to AO in distilled water. Microscope slides coated with chicken erythrocytes were exposed to a mixture of xanthine/AO at each molar ratio for periods of 10 min, 1 min, and 10 seconds under static (non-agitated) conditions. […] Following exposure to the xanthine/AO or to the DNA/AO solutions, the slides were rinsed in distilled water, allowed to dry at room temperature, examined by fluorescence microscopy, and the color of the nuclei recorded. Results were recorded as follows: 0=no blocking effect; 1=slight blocking; 2=moderate blocking; 3=almost total blocking (very slight green fluorescence detectable); 4=complete blockage (no green fluorescence detectable).
In the implementation shown in Table 4-2, the relative intensity of the green fluorescent color ([…]) utilizing a red blocking filter (≧600 nm) was used as the indicator of the intensity of staining. The molar ratio is expressed as the ratio of xanthine concentration to 10 μM AO. Results were recorded as follows: 0=no blocking effect; 1=slight blocking; 2=moderate blocking; 3=almost total blocking (very slight green fluorescence detectable); 4=complete blockage (no green fluorescence detectable). *Kassoc values for the xanthines are taken from Table 2-1 and the Kassoc values for DNA were taken from Table 3-2.

[3] = system: chicken erythrocyte nuclear chromatin; assay: Removal of acridine orange from stained chicken erythrocyte nuclear chromatin by xanthine rinse, fluorescence microscopy; conditions: for Nuclear color, Stain: before xanthine rinse; for Nuclear color, Re-stain: re-stained after xanthine rinse; for Nuclear color, After Rinse: xanthine rinse 50 mM, 1 hour, static
Procedure: Experiments were conducted to determine whether xanthines with known binding affinities to AO could compete with nuclear DNA for binding to AO and, therefore, be able to remove AO from its intercalation position within nuclear chromatin. Fluorescence microscopy was used to observe the fluorescent color produced by the AO-DNA complex following the staining of chicken erythrocyte nuclear chromatin with AO at both 5 μM and 5 mM.
Microscope slides smeared with chicken erythrocytes were stained with either 5 μM or 5 mM AO for a period of 30 minutes followed by three 10 second rinses in distilled water before drying at room temperature. Slides were then examined by fluorescence microscopy using a, Zeiss Model 63 Microscope with a xenon source fluorescent emitter. In some instances, a blocking filter was used to filter out fluorescence emission in the red and higher wavelengths. Photomicrographs were taken with Kodak Gold 35 mm ASA 1600 speed film, developed and color prints made. Comparative photomicrographs were taken at the same magnification and at the same exposure time. Selected photomicrographs were digitally scanned (Hewitt-Packard, Model 4L Scanner, Palo Alto, Calif.) and stored on 100 MB ZIP cartridges.
Slides were again examined by fluorescence microscopy and fluorescence color of the nuclei recorded. Slides were again stained with 5 mM AO then re-examined by fluorescence microscopy and fluorescence color of the nuclei recorded.
In the example shown in Table 4-3, the chicken erythrocytes were smeared and dried on a microscope slide prior to exposure to the AO solution for 30 minutes followed by water rinses to remove excess AO. Following drying, each slide was observed under fluorescence microscopy then placed in one of the xanthine solutions (50 ml volume) for 1 hour under static conditions, rinsed with water, then dried prior to being observed by fluorescence microscopy without a red blocking filter. Finally, each slide was restained following the initial staining procedures and again observed by fluorescence microscopy. Kassoc values are taken from Table 2-1 and are expressed in M^−1.

[4] = Table 2-2, Kassoc value with acridine orange (this report)

Cn1c(=O)[nH]c2ncn(C)c2c1=O [1,7-dimethyl xanthine]
Kassoc [1, 4]: 155 M⁻¹
Kassoc ± S.E. [1]: 155.3 ± 3.1 M⁻¹

COc1nc(N)nc2nc[nH]c12 [2-amino-6-methoxy purine]
Kassoc ± S.E. [1]: ~2 M⁻¹

Clc1ncnc2nc[nH]c12 [6-chloro purine]
Kassoc ± S.E. [1]: 0 M⁻¹

c1ncc2[nH]cnc2n1 [Purine]
Kassoc ± S.E. [1]: ~2 M⁻¹

Cn1c(=O)c2[nH]c(Cl)nc2n(C)c1=O [1,3-dimethyl-8-chloro xanthine]
Kassoc ± S.E. [1]: 412.5 ± 11.7 M⁻¹
complex formation / binding affinity with AO [1]: failed to exhibit any significant binding affinity for AO

O=c1[nH]c(=O)c2[nH]c(=O)[nH]c2[nH]1 [uric acid (8-oxy xanthine), 8-oxy xanthine]
Kassoc ± S.E. [1]: 0 M⁻¹
complex formation / binding affinity with AO [1]: did not complex with AO

Cn1c(=O)[nH]c2[nH]c(=O)[nH]c2c1=O [1-methyl-8-oxy xanthine]
Kassoc ± S.E. [1]: 0 M⁻¹
complex formation / binding affinity with AO [1]: failed to exhibit any significant binding affinity for AO

Cn1cnc2[nH]c(=O)[nH]c(=O)c21 [7-methyl xanthine]
Kassoc ± S.E. [1]: 0 M⁻¹
complex formation / binding affinity with AO [1]: little or no affinity to complex with AO

Cn1cnc2ncnc-2c1N [1-methyl-6-amino purine]
Kassoc ± S.E. [1]: ~14 M⁻¹

Cn1c(=O)c2[nH]c(=O)[nH]c2n(C)c1=O [1,3-dimethyl-8-oxy xanthine]
Kassoc ± S.E. [1]: 38.5 M⁻¹ and 38.5 ± 2.2 M⁻¹
complex formation / binding affinity with AO [1]: failed to exhibit any significant binding affinity for AO

Cn1c(=O)[nH]c(=O)c2[nH]cnc21 [3-methyl xanthine]
complex formation / binding affinity with AO [1]: little or no affinity to complex with AO

Cn1c(=O)[nH]c2nc[nH]c2c1=O [1-methyl xanthine]
Kassoc [1, 4]: 79^a M^−1
Kassoc ± S.E. [1]: 79.2 ± 2.0 M⁻¹
complex formation / binding affinity with AO [1]: failed to exhibit any significant binding affinity for AO

Cc1ncnc2nc[nH]c12 [6-methyl purine]
Kassoc ± S.E. [1]: 0 M⁻¹

Cn1c(=O)c2[nH]cnc2n(C)c1=O [1,3-dimethyl xanthine (theophylline), 1,3-dimethyl xanthine]
blocking of AO intercalation ([2]; Xanthine/AO molar ratio 5000:1, exposure 10 min): 0
blocking of AO intercalation ([2]; molar ratio 50:1, exposure 10 sec): 0
blocking of AO intercalation ([2]; molar ratio 50:1, exposure 1 min): 0
blocking of AO intercalation ([2]; molar ratio 50:1, exposure 10 min): 0
blocking of AO intercalation ([2]; molar ratio 500:1, exposure 10 sec): 0
blocking of AO intercalation ([2]; molar ratio 500:1, exposure 1 min): 0
blocking of AO intercalation ([2]; molar ratio 500:1, exposure 10 min): 0
blocking of AO intercalation ([2]; molar ratio 2500:1, exposure 10 sec): 0
blocking of AO intercalation ([2]; molar ratio 2500:1, exposure 1 min): 0
blocking of AO intercalation ([2]; molar ratio 2500:1, exposure 10 min): 0
blocking of AO intercalation ([2]; molar ratio 5000:1, exposure 10 sec): 0
blocking of AO intercalation ([2]; molar ratio 5000:1, exposure 1 min): 0
Nuclear color, Stain ([3]; AO [5 μM] 30 minutes): Green
Nuclear color, Re-stain ([3]; AO [5 μM]): Green
Nuclear color, After Rinse ([3]; AO [5 μM]): Green
Nuclear color, Stain ([3]; AO [5 mM] 30 minutes): Red
Nuclear color, Re-stain ([3]; AO [5 mM]): Red
Nuclear color, After Rinse ([3]; AO [5 mM]): Red
Kassoc [1, 4]: 157 M⁻¹
Kassoc ([1]; Table 4-2, in parentheses under compound, taken from Table 2-1): (157) M^−1
Kassoc ([1]; Table 4-3, taken from Table 2-1): 161 M⁻¹
Kassoc ± S.E. [1]: 160.8 M⁻¹

Cn1c(=O)[nH]c2[nH]c(=O)[nH]c(=O)c21 [7-methyl-8-oxy xanthine]
Kassoc ± S.E. [1]: 0 M⁻¹
complex formation / binding affinity with AO [1]: little or no affinity to complex with AO
